How the values were obtained:
[1] = target: T1, YhdE (Escherichia coli, UniProt P25536); experiment: fluorescence PPi sensor (4-isoACBA-Zn(II)), real-time; assay type: biochemical; conditions: 20 mM HEPES pH 7.0, 0.4 mM Zn2+, 0.1 mM 4-isoACBA, 298 K; 75 nM enzyme
T1 construct: recombinant, cloned in vector pFO4, expressed in E. coli BL21(DE3); PDB entries are of the E33A mutant

[2] = substrate: Cc1cn([C@H]2C[C@H](O)[C@@H](COP(=O)(O)OP(=O)(O)OP(=O)(O)O)O2)c(=O)[nH]c1=O; experiment: as above; assay type: biochemical, Escherichia coli; conditions: 20 mM HEPES pH 7.0, 0.4 mM Zn2+, 0.1 mM 4-isoACBA, 298 K, 7.5 μM enzyme, 25.0 °C

`Cc1cn([C@H]2C[C@H](O)[C@@H](COP(=O)(O)OP(=O)(O)OP(=O)(O)O)O2)c(=O)[nH]c1=O` [dTTP] was tested, and the “apparent Km” value [1] was “somewhat surprisingly, is similar to that of the wild-type YhdE”.

B1: YhdE (Escherichia coli K-12; E33A) (protein)
chain: MTSLYLASGSPRRQELLAQLGVTFERIVTGIEAQRQPQESAQQYVVRLAREKARAGVAQTAKDLPVLGADTIVILNGEVLEKPRDAEHAAQMLRKLSGQTHQVMTAVALADSQHILDCLVVTDVTFRTLTDEDIAGYVASDEPLDKAGAYGIQGLGGCFVRKINGSYHAVVGLPLVETYELLSNFNALREKRDKHDG
notes: recombinant, cloned in vector pFO4, expressed in E. coli BL21(DE3); PDB entries are of the E33A mutant
For B1, the Km [2] was 75 µM.
